EC50 data for 28 compounds are collected here from PubChem BioAssay AID651790 (The Scripps Research Institute Molecular Screening Center, 2012).

Structures are written as SMILES. Activity calls are given as the source filed them. How the calls were made is not given here.

This assay concerns cells with GAA30 frataxin promoter-luciferase, luminescence. The experiment in a line: GAA30 FXN promoter reporter activators, dose response, counter-screen for GAA850 frataxin promoter activators, cell-based, luminescence, GAA30 repeat (AID 651790).

Regarding `COc1ccccc1NC(=O)c1cnc(SCC(=O)NCc2ccccc2)n(C)c1=O`, the EC50 is > 59.6 µM (inactive).
In the case of `COc1ccc(-c2nnc(Nc3nc4cc(OC)ccc4s3)o2)c(OC)c1`, the EC50 was > 59.6 µM (inactive).
As for `COc1ccccc1NC(=O)c1cnc(SCC(=O)Nc2cc(C)on2)n(C)c1=O`, the EC50 was > 59.6 µM (inactive).
As to `CCc1nnc(NC(=O)CSc2ncc(C(=O)Nc3ccc(C)c(C)c3)c(=O)n2C)s1`, the EC50 is > 59.6 µM (inactive).
As to `COc1ccc(-c2nnc(Nc3nc4ccc(OC)cc4s3)o2)c(OC)c1`, the EC50 is > 59.6 µM (inactive).
As to `Cn1c(SCC(=O)NCC2CCCO2)ncc(C(=O)Nc2ccccc2)c1=O` (stereo not drawn), the EC50 was > 59.6 µM (inactive).
Consider `Cc1ccc(NC(=O)c2cnc(SCC(=O)Nc3cccc(C(F)(F)F)c3)n(C)c2=O)cc1C`, for which the EC50 is 28.7 µM (inactive).
The same measure for `CSc1ccc2nc(Nc3nnc(-c4ccccc4Cl)o3)sc2c1`: 27.6 µM (inactive); for `COc1ccc(-c2nnc(Nc3nc4ccc(SC)cc4s3)o2)c(OC)c1`: > 59.6 µM (inactive).
With `COc1ccccc1CNC(=O)CSc1ncc(C(=O)Nc2ccccc2)c(=O)n1C`, the EC50 is > 59.6 µM (inactive).
Take `Fc1ccc(-c2nnc(Nc3nc4c(F)cccc4s3)o2)cc1`: the EC50 is 0.634 µM.
As to `Clc1ccc(-c2nnc(Nc3nc4cc5c(cc4s3)OCO5)o2)cc1`, the EC50 was > 59.6 µM (inactive).
For `COc1ccc(-c2nnc(Nc3nc4ccc(F)cc4s3)o2)c(OC)c1`, the EC50 is > 59.6 µM (inactive).
Take `COc1ccccc1NC(=O)c1cnc(SCC(=O)NCC2CCCO2)n(C)c1=O` (stereo not drawn): the EC50 was > 59.6 µM (inactive).
As to `COc1ccc(-c2nnc(Nc3nc4c(OC)cccc4s3)o2)c(OC)c1`, the EC50 was > 59.6 µM (inactive).
The value for `COc1cccc2sc(Nc3nnc(-c4ccccc4)o3)nc12` was > 59.6 µM (inactive); that for `COc1ccccc1-c1nnc(Nc2nc3c(OC)cccc3s2)o1` was > 59.6 µM (inactive).
Turning to `COc1ccccc1NC(=O)c1cnc(SCC(=O)Nc2ccc3c(c2)OCO3)n(C)c1=O`, the EC50 is > 59.6 µM (inactive).
As for `COc1cccc2sc(Nc3nnc(-c4ccccc4Cl)o3)nc12`, the EC50 is > 59.6 µM (inactive).
The value for `COc1ccc(-c2nnc(Nc3nc4c(OC)cccc4s3)o2)cc1` was > 59.6 µM (inactive).
Turning to `COc1ccccc1NC(=O)c1cnc(SCC(=O)NCCc2ccccc2)n(C)c1=O`, the EC50 was > 59.6 µM (inactive).
Take `Clc1ccccc1-c1nnc(Nc2nc3cc4c(cc3s2)OCO4)o1`: the EC50 was 53.1 µM (inactive).
As to `COc1ccccc1NC(=O)c1cnc(SCC(=O)NCc2ccc3c(c2)OCO3)n(C)c1=O`, the EC50 was > 59.6 µM (inactive).
For `CSc1ccc2nc(Nc3nnc(-c4ccc5c(c4)OCCO5)o3)sc2c1`, the EC50 is > 59.6 µM (inactive).
As to `Fc1cccc2sc(Nc3nnc(-c4ccccc4Cl)o3)nc12`, the EC50 is 4.95 µM.
With `COc1ccccc1NC(=O)c1cnc(SCC(=O)Nc2nc3ccccc3s2)n(C)c1=O`, the EC50 was > 59.6 µM (inactive).
The same measure for `Cn1c(SCC(=O)NCC2CCCO2)ncc(C(=O)Nc2ccc(F)cc2)c1=O` (stereo not drawn): > 59.6 µM (inactive).
On to `Fc1ccc2nc(Nc3nnc(-c4ccccc4Cl)o3)sc2c1`, for which the EC50 was > 59.6 µM (inactive).

By EC50 is commonly meant the concentration needed to bring the measured effect to its halfway point.
